According to PubChem BioAssay AID1963847 (Molecular Pharmacology Branch, DTP, NCI, 2024):

System: 415267-285-R-J2-PDC complex spheroid viability
Assay: Anticancer human tumor 415267-285-R-J2-PDC patient-derived breast carcinoma cell line growth inhibition [POLQ]
Details: for IC50: curve of first compound; for viability, T/C: stronger effect = lower value
In short: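 Patient-derived tumour cells were co-cultured with HUVEC and mesenchymal stem cells as multicellular spheroids at 37 °C. They were treated with POLQ inhibitors (novobiocin, ART-558, RP6685) alone or combined with other agents. Top concentrations were at or near clinical Cmax (otherwise 10 microM; SN-38 at 1 microM), decreasing in half-log steps.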

[1] = second compound 0.0316 µM, first compound 0.0316 µM
[2] = second compound 0.0316 µM, first compound 0.1 µM
[3] = second compound 0.1 µM, first compound 0.0316 µM
[4] = second compound 0.1 µM, first compound 0.1 µM
[5] = second compound 0.316 µM, first compound 0.0316 µM
[6] = second compound 0.316 µM, first compound 0.1 µM
[7] = second compound 1 µM, first compound 0.0316 µM
[8] = second compound 1 µM, first compound 0.1 µM
[9] = second compound 3.16 µM, first compound 0.0316 µM
[10] = second compound 3.16 µM, first compound 0.1 µM
[11] = second compound 10 µM, first compound 0.0316 µM
[12] = second compound 10 µM, first compound 0.1 µM
[13] = second compound 0.0316 µM, first compound 0.316 µM
[14] = second compound 0.0316 µM, first compound 1 µM
[15] = second compound 0.0316 µM, first compound 3.16 µM
[16] = second compound 0.0316 µM, first compound 10 µM
[17] = second compound 0.1 µM, first compound 0.316 µM
[18] = second compound 0.1 µM, first compound 1 µM
[19] = second compound 0.1 µM, first compound 3.16 µM
[20] = second compound 0.1 µM, first compound 10 µM
[21] = second compound 0.316 µM, first compound 0.316 µM
[22] = second compound 0.316 µM, first compound 1 µM
[23] = second compound 0.316 µM, first compound 3.16 µM
[24] = second compound 0.316 µM, first compound 10 µM
[25] = second compound 1 µM, first compound 0.316 µM
[26] = second compound 1 µM, first compound 1 µM
[27] = second compound 1 µM, first compound 3.16 µM
[28] = second compound 1 µM, first compound 10 µM
[29] = second compound 3.16 µM, first compound 0.316 µM
[30] = second compound 3.16 µM, first compound 1 µM
[31] = second compound 3.16 µM, first compound 3.16 µM
[32] = second compound 3.16 µM, first compound 10 µM
[33] = second compound 10 µM, first compound 0.316 µM
[34] = second compound 10 µM, first compound 1 µM
[35] = second compound 10 µM, first compound 3.16 µM
[36] = second compound 10 µM, first compound 10 µM
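Note: spheroids exposed to compounds for one week before readout.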
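Throughout, for viability, T/C: luminescence used as stand-in measure of viable cells; 100% = DMSO vehicle control viability.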

CC[C@@]1(O)C(=O)OCc2c1cc1n(c2=O)Cc2cc3c(CN(C)C)c(O)ccc3nc2-1 + Cc1cccc(N(C)C(=O)C2C(O)CCN2c2nc(C)cc(C(F)(F)F)c2C#N)c1
IC50 (second compound 0.0316 µM): 19.8 nM | IC50 (second compound 0.1 µM): 18.8 nM | IC50 (second compound 0.316 µM): 20.6 nM | IC50 (second compound 1 µM): 18.9 nM | IC50 (second compound 3.16 µM): 18.5 nM | IC50 (second compound 10 µM): 18.2 nM | viability, T/C (second compound 0.0316 µM, first compound 0.000316 µM): 90.7% | viability, T/C (second compound 0.0316 µM, first compound 0.001 µM): 102% | viability, T/C (second compound 0.0316 µM, first compound 0.00316 µM): 103% | viability, T/C (second compound 0.0316 µM, first compound 0.01 µM): 90.9% | viability, T/C [1]: 22% | viability, T/C [2]: 7.7% | viability, T/C (second compound 0.1 µM, first compound 0.000316 µM): 96.9% | viability, T/C (second compound 0.1 µM, first compound 0.001 µM): 96.9% | viability, T/C (second compound 0.1 µM, first compound 0.00316 µM): 101% | viability, T/C (second compound 0.1 µM, first compound 0.01 µM): 86.5% | viability, T/C [3]: 19.9% | viability, T/C [4]: 7.92% | viability, T/C (second compound 0.316 µM, first compound 0.000316 µM): 102% | viability, T/C (second compound 0.316 µM, first compound 0.001 µM): 98% | viability, T/C (second compound 0.316 µM, first compound 0.00316 µM): 102% | viability, T/C (second compound 0.316 µM, first compound 0.01 µM): 104% | viability, T/C [5]: 19.2% | viability, T/C [6]: 9.41% | viability, T/C (second compound 1 µM, first compound 0.000316 µM): 101% | viability, T/C (second compound 1 µM, first compound 0.001 µM): 96.4% | viability, T/C (second compound 1 µM, first compound 0.00316 µM): 107% | viability, T/C (second compound 1 µM, first compound 0.01 µM): 89.5% | viability, T/C [7]: 18.1% | viability, T/C [8]: 7.15% | viability, T/C (second compound 3.16 µM, first compound 0.000316 µM): 98.5% | viability, T/C (second compound 3.16 µM, first compound 0.001 µM): 102% | viability, T/C (second compound 3.16 µM, first compound 0.00316 µM): 92% | viability, T/C (second compound 3.16 µM, first compound 0.01 µM): 91.7% | viability, T/C [9]: 13.8% | viability, T/C [10]: 8.04% | viability, T/C (second compound 10 µM, first compound 0.000316 µM): 108% | viability, T/C (second compound 10 µM, first compound 0.001 µM): 96.2% | viability, T/C (second compound 10 µM, first compound 0.00316 µM): 104% | viability, T/C (second compound 10 µM, first compound 0.01 µM): 85.6% | viability, T/C [11]: 17.1% | viability, T/C [12]: 9.1%

COc1cc(C2c3cc4c(cc3C(OC3OC5COC(C)OC5C(O)C3O)C3COC(=O)C23)OCO4)cc(OC)c1O (stereo unspecified) + Cc1cccc(N(C)C(=O)C2C(O)CCN2c2nc(C)cc(C(F)(F)F)c2C#N)c1
IC50 (second compound 0.0316 µM): 136 nM | IC50 (second compound 0.1 µM): 126 nM | IC50 (second compound 0.316 µM): 107 nM | IC50 (second compound 1 µM): 125 nM | IC50 (second compound 3.16 µM): 103 nM | IC50 (second compound 10 µM): 89.9 nM | viability, T/C [1]: 96% | viability, T/C [2]: 64.5% | viability, T/C [13]: 10.3% | viability, T/C [14]: 6.03% | viability, T/C [15]: 5.96% | viability, T/C [16]: 6.13% | viability, T/C [3]: 83.3% | viability, T/C [4]: 58.7% | viability, T/C [17]: 15% | viability, T/C [18]: 5.93% | viability, T/C [19]: 6.54% | viability, T/C [20]: 7.34% | viability, T/C [5]: 96.4% | viability, T/C [6]: 52.3% | viability, T/C [21]: 14.2% | viability, T/C [22]: 7.66% | viability, T/C [23]: 5.87% | viability, T/C [24]: 5.74% | viability, T/C [7]: 91.3% | viability, T/C [8]: 58.8% | viability, T/C [25]: 13.1% | viability, T/C [26]: 6.58% | viability, T/C [27]: 4.68% | viability, T/C [28]: 6.56% | viability, T/C [9]: 93.7% | viability, T/C [10]: 50.9% | viability, T/C [29]: 10.1% | viability, T/C [30]: 7.37% | viability, T/C [31]: 5.2% | viability, T/C [32]: 6.34% | viability, T/C [11]: 79.7% | viability, T/C [12]: 47% | viability, T/C [33]: 11% | viability, T/C [34]: 7.78% | viability, T/C [35]: 5.72% | viability, T/C [36]: 5.96%

O=c1[nH]cc(F)c(=O)[nH]1 + Cc1cccc(N(C)C(=O)C2C(O)CCN2c2nc(C)cc(C(F)(F)F)c2C#N)c1
IC50 (second compound 0.0316 µM): 222 nM | IC50 (second compound 0.1 µM): 207 nM | IC50 (second compound 0.316 µM): 203 nM | IC50 (second compound 1 µM): 181 nM | IC50 (second compound 3.16 µM): 192 nM | IC50 (second compound 10 µM): 179 nM | viability, T/C [1]: 87.3% | viability, T/C [2]: 83.9% | viability, T/C [13]: 35.1% | viability, T/C [14]: 30.1% | viability, T/C [15]: 27.6% | viability, T/C [16]: 43% | viability, T/C [3]: 97.1% | viability, T/C [4]: 72.6% | viability, T/C [17]: 37.3% | viability, T/C [18]: 27.2% | viability, T/C [19]: 28% | viability, T/C [20]: 39% | viability, T/C [5]: 98.8% | viability, T/C [6]: 72% | viability, T/C [21]: 36.9% | viability, T/C [22]: 26.6% | viability, T/C [23]: 26.8% | viability, T/C [24]: 36.1% | viability, T/C [7]: 100% | viability, T/C [8]: 64.8% | viability, T/C [25]: 36.7% | viability, T/C [26]: 28.5% | viability, T/C [27]: 25.6% | viability, T/C [28]: 35.4% | viability, T/C [9]: 95.8% | viability, T/C [10]: 67.9% | viability, T/C [29]: 36.6% | viability, T/C [30]: 28.8% | viability, T/C [31]: 33.5% | viability, T/C [32]: 33.6% | viability, T/C [11]: 92.1% | viability, T/C [12]: 64.5% | viability, T/C [33]: 36.3% | viability, T/C [34]: 26.8% | viability, T/C [35]: 24.7% | viability, T/C [36]: 29.4%
